We go through 15 molecules from ChEMBL document CHEMBL1152970, “Optimization of a series of 2,4-diaminopyridines as neuropeptide Y Y1 receptor antagonists with reduced hERG activity” (Bioorg Med Chem Lett, 2009).

One series can be described thus: physchem. Conditions: octanol/water, pH 7.4.
Series [1] in a line: Plasma concentration in mdr1a deficient CF-1 mouse at 30 mg/kg, ip after 30 mins. In kind it is ADME, organism-based. Further details: dose 30 mg/kg, route intraperitoneal. Conditions: CF-1 (mdr1a deficient).
The nature of series [2]: Plasma concentration in C57BL/6 mouse plasma at 30 mg/kg, ip after 30 mins. In kind it is ADME, organism-based, C57BL6. The arrangement: dose 30 mg/kg, route intraperitoneal.
The nature of series [3]: Ratio of drug level in brain to plasma in mdr1a deficient CF-1 mouse at 30 mg/kg, ip after 30 mins. The arrangement: dose 30 mg/kg, route intraperitoneal. Conditions: CF-1 (mdr1a deficient). It is filed as ADME, organism-based.
The subject of series [4] is Brain. In words: Drug level in mdr1a deficient CF-1 mouse brain at 30 mg/kg, ip after 30 mins. In kind it is ADME, organism-based. The arrangement: dose 30 mg/kg, route intraperitoneal. The note with it: in vivo, 0.5 h.
Series [5] concerns Brain. The series can be described thus: Drug level in C57BL/6 mouse brain at 30 mg/kg, ip after 30 mins. The arrangement: dose 30 mg/kg, route intraperitoneal. It is filed as ADME, organism-based, C57BL6. Conditions: in vivo, 0.5 h.
Series [6] can be described thus: Ratio of drug level in brain to plasma in C57BL/6 mouse at 30 mg/kg, ip after 30 mins. In kind it is ADME, organism-based, C57BL6. The arrangement: dose 30 mg/kg, route intraperitoneal.

`CCOC(=O)CNc1cc(N2CCOCC2)cc(CCc2nc(C)c(CC)o2)n1` had a logD in the series “physchem” of 2.8. On to `CCc1oc(CCc2cc(N3CCOCC3)cc(NC(C)=O)n2)nc1C`, for which, in “physchem”, the log distribution coefficient (logD) amounted to 2.3. On the same count and under the same terms, then `CCc1oc(CCc2cc(N3CCOCC3)cc(NCC(F)(F)F)n2)nc1C`, with 3.5; and `CCNc1cc(N2CCOCC2)cc(CCc2nc(C)c(CC)o2)n1`, with 2.2; and `CCCNc1cc(N2CCOCC2)cc(CCc2nc(C)c(CC)o2)n1`, with 2.5. Still for that read-out and setting: the result for `CCc1oc(CCc2cc(N3CCOCC3)cc(NCC#N)n2)nc1C` reads 2.4; that for `Cc1nc(OCc2cc(N3CCOCC3)cc(NCC#N)n2)oc1C`, 2.1. Same read-out and setting: the result for `CCc1oc(SCc2cc(N3CCOCC3)cc(NCC#N)n2)nc1C` reads 2.6. In the case of `CCc1oc(CCc2cc(N3CCOCC3)cc(NCCC#N)n2)nc1C`, the logD in “physchem” came to 2. With `CCc1oc(CCc2cc(N3CCOCC3)cc(NC)n2)nc1C`, in “physchem”, the logD is 1.7. For `Cc1nc(SCc2cc(N3CCOCC3)cc(NCC#N)n2)n(C)c1C`, the logD in “physchem” was found to be 1. With `CCc1sc(CCc2cc(N3CCOCC3)cc(NC(C)c3cc(Cl)cc(NC(=O)OC(C)C)c3)n2)nc1C` (stereo unspecified), the logD in the series “physchem” is greater than 4.

Consider `Cc1nc(SCc2cc(N3CCOCC3)cc(NCC#N)n2)sc1C`, for which the concentration at 0.5 h in series [1] is 5.2 µM; in series [2] it was 3.4 µM. In “physchem”, the logD was 2.4. Besides, the Kp at 0.5 h in series [3] amounted to 0.9; in series [6], 0.27. The Drug uptake in the series on Brain [4] is 4.7 nmol/g; with Brain [5], 0.9 nmol/g. `CCc1oc(CCc2cc(N3CCOCC3)cc(NC(C)C)n2)nc1C` showed a logD in “physchem” of 2.4. The same measure, in the same setting: then `Cc1nc(SCc2cc(N3CCOCC3)cc(NCC#N)n2)oc1C`, with 2.

The logD is lipophilicity at a set pH, counting ionised and neutral species. Read a high logD as a more lipophilic compound. By Kp is commonly meant tissue or fluid exposure divided by exposure in the circulation.
